In one experiment the test system is passive cutaneous anaphylaxis (PCA). In words: Inhibition of passive cutaneous anaphylaxis (PCA test) in rats. It is filed as in vivo. Conditions: Rattus norvegicus, po, 10 minutes before intraperitoneal ovoalbumin and Evans blue, blue spot diameter after 30 minutes, read-out: P.C.A. Inhibition ED50. As for the experimental part: For example, the substances have an inhibiting action on the release of endogenic mediators, from mast cells or basophilic leucocytes, which leads to allergic reactions. The doses to be used vary, of course, depending upon the nature of the substance used, upon the mode of administration and upon the condition to be treated. In general, however, satisfactory results are obtained in animal experiments with peroral doses of between 0.05 and 75 mg. per kg. of body weight. Thus, the new compounds have a specific inhibiting action in the PCA test (passive cutaneous anaphylaxis)in rats which is described below.
Description of the test method to determine the inhibition of passive cutaneous anaphylasis (PCA test, see Arch.int.pharmacology 252 (1981) 316-326)
To prepare the IgE-antiovoalbumin serum, used in this test, by the method of Mota (Immunology 7, (1964) 681) and J. Goose (Immunology 16 (1969) 749), male Wistar rats of 200-250 g. body weight were sensitised by subcutaneous injection of 1 mg. of ovoalbumin and 1 ml. of Bordetella pertussis suspension ("Vaxicoq" Merieux 3×10^10 organisms/ml). After 14 days, the animals are exsanguinated and the blood is centrifuged. The antiserum thus obtained is stored at […].
Non-sensitised rats were injected with in each case 0.1 ml. of antiserum into the skin at in each case four different sites on their shaven backs. After 72 hours, a solution of the test compound, or, for comparison, only the solvent, is administered orally, and 10 minutes later 5 mg. of ovoalbumin and 5 mg. of blue dye (Evans blue) in 0.9% strength sodium chloride solution are administered intraperitoneally. After 30 minutes, the animals are sacrificed and the diameters of the blue spots formed at the sites injected with the antiserum are measured. The inhibiting effect of the test substance is determined from the size of the blue spots which occur. […]
Take `O=c1c2ccccc2n(-c2ccccc2)n1CCCCN1CCN(c2ccccc2)CC1` [Example 12]: the ED50 (in general, the dose at which the effect has come halfway, by size or by number of responders) is 22 mg/kg. Same read-out and setting: for `O=c1c2ccccc2n(-c2ccccc2)n1CCCN1CCN(c2ccc(F)cc2)CC1` [Example 15] the value was 10.6 mg/kg; for `O=c1c2ccccc2n(-c2ccccc2)n1CCCCN1CCN(c2ccc(F)cc2)CC1` [Example 17], 17.9 mg/kg; for `O=c1c2ccccc2n(-c2ccccc2)n1CCCCN1CCN(c2ccccn2)CC1` [Example 18], 25 mg/kg. Still for that read-out and setting: under `O=c1c2ccccc2n(-c2ccccc2)n1CCCN1CCN(c2ccccn2)CC1` [Example 19] stands 11.5 mg/kg. As to `Cc1ccnc(N2CCN(CCCn3c(=O)c4ccccc4n3-c3ccccc3)CC2)c1` [Example 21], the ED50 was 19.2 mg/kg. Still for that read-out and setting: for `COc1ccccc1N1CCN(CCCCn2c(=O)c3ccc(Cl)cc3n2-c2ccccc2)CC1` [Example 26] the value was 22 mg/kg. On the same count and under the same terms, for `COc1ccc2c(c1)c(=O)n(CCCCN1CCN(c3cc(C)ccn3)CC1)n2-c1ccccc1` [Example 28] the value was 5.7 mg/kg; for `COc1ccc2c(c1)c(=O)n(CCCCN1CCN(c3ccccc3OC)CC1)n2-c1ccccc1` [Example 29], 14 mg/kg; for `Cc1ccnc(N2CCN(CCCCn3c(=O)c4ccccc4n3-c3cccc(C(F)(F)F)c3)CC2)c1` [Example 32], 6.6 mg/kg.

The same experiment, now with this note: oral, 10 minutes before intraperitoneal ovoalbumin and Evans blue, blue spot diameter after 30 minutes.
As for `Cc1ccnc(N2CCN(CCCCn3c(=O)c4ccccc4n3-c3ccccc3)CC2)c1` [Example 20], the “P.C.A. Inhibition ED50” value worked out at 7.5 mg/kg. With `Cc1ccnc(N2CCN(CCCCn3c(=O)c4ccccc4n3-c3ccccc3)CC2)c1` [Example 49], the “P.C.A. Inhibition ED50” value amounted to 15.5 mg/kg.

The values are drawn from patent US4448777A, “1-Phenylindazole-3-one compounds, process and intermediates for their preparation, and pharmaceutical compositions containing same” (Kali-Chemie Pharma GmbH, priority 1981, dated 1984).
